From ChEMBL document CHEMBL3991601, “The target landscape of clinical kinase drugs” (Science, 2017) come the findings set out here.

One may read the Kd as the equilibrium constant for the complex coming apart.

Test [1] deals with Ephrin type-A receptor 7 (Homo sapiens, UniProt Q15375).
In test [2] the target is Focal adhesion kinase 1 (Homo sapiens, UniProt Q05397).
Test [3] deals with Mitogen-activated protein kinase kinase kinase 20 (Homo sapiens, UniProt Q9NYL2).
The target in test [4] is Casein kinase I isoform delta (Homo sapiens, UniProt P48730).
Casein kinase I isoform delta, sequence (P48730 whole entry, canonical isoform): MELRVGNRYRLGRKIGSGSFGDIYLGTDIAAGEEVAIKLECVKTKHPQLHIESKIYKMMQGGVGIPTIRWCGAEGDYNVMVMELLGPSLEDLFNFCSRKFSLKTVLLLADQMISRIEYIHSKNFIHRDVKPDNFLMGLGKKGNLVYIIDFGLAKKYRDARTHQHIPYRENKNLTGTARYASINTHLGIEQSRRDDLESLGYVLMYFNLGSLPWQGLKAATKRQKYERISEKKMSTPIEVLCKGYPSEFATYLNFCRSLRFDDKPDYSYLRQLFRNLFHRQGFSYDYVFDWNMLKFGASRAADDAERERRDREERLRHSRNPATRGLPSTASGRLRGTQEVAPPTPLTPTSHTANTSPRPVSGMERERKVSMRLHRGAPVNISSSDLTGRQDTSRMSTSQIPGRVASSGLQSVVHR
Test [5] has as its target T1, Serine/threonine-protein kinase TBK1 (Homo sapiens, UniProt Q9UHD2).
T1 sequence (Q9UHD2 whole entry): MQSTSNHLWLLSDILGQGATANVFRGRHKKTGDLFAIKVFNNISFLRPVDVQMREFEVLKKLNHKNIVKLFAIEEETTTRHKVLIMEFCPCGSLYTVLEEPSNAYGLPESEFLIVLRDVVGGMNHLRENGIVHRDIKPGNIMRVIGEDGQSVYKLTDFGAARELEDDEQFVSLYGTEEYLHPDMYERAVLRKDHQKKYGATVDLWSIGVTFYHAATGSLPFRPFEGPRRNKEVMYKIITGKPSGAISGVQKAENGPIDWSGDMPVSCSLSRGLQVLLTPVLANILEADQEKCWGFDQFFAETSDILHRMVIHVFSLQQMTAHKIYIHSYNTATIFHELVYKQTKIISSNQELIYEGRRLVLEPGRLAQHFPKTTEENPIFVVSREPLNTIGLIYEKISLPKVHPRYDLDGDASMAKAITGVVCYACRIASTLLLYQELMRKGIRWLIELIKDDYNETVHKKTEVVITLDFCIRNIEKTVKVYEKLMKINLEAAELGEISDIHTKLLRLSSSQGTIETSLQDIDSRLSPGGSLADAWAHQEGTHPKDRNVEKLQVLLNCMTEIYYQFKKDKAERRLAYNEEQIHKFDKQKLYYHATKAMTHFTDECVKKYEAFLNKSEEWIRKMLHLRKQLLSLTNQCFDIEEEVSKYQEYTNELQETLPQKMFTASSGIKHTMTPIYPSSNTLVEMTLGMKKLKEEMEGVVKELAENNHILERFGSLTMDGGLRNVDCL

Test [6] concerns the target Casein kinase II subunit alpha' (Homo sapiens, UniProt P19784).
Test [7] addresses Epidermal growth factor receptor (Homo sapiens, UniProt P00533).
Test [8] has as its target Serine/threonine-protein kinase/endoribonuclease IRE2 (Homo sapiens, UniProt Q76MJ5).
The target in test [9] is Tyrosine-protein kinase Yes (Homo sapiens, UniProt P07947).
Test [10] addresses T2, Probable ATP-dependent RNA helicase DDX6 (Homo sapiens, UniProt P26196).
T2 sequence (P26196 whole entry): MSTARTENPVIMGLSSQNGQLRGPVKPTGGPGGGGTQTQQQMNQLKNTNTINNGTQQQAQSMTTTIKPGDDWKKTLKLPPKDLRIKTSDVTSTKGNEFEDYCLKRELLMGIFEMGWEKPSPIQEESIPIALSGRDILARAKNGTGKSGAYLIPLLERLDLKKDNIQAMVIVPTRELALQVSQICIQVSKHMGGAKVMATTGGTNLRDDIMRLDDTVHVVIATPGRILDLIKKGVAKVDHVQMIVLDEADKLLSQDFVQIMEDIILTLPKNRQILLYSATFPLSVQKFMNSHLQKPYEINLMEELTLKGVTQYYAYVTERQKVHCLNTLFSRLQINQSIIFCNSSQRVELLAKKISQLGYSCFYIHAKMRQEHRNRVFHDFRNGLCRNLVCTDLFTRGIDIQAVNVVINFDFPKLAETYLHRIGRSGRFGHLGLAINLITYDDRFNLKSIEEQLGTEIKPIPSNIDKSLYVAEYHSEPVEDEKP

Test [11] addresses Serine/threonine-protein kinase PAK 4 (Homo sapiens, UniProt O96013).
Test [12] concerns the target T3, Membrane-associated tyrosine- and threonine-specific cdc2-inhibitory kinase (Homo sapiens, UniProt Q99640).
T3 sequence (Q99640 whole entry): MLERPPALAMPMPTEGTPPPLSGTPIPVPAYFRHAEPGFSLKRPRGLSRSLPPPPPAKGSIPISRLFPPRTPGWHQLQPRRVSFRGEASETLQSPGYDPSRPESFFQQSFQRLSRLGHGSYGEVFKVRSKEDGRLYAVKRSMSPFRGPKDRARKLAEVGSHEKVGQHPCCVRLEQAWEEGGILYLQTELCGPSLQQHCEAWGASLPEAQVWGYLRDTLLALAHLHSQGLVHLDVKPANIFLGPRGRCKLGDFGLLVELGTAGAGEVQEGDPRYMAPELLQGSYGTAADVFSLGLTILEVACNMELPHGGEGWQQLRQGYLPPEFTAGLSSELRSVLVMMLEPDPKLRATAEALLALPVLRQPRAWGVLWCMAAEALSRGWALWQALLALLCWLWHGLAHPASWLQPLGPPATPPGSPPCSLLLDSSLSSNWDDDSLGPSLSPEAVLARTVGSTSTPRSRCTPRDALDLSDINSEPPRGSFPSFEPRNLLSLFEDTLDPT

Test [13] addresses Mitogen-activated protein kinase 10 (Homo sapiens, UniProt P53779).

Activity calls are given as the source filed them. For most assays here, no stated cut-off is given here; in the data, actives have a measured Kd and inactives only a lower limit.

Serine/threonine-protein kinase/endoribonuclease IRE2, sequence (Q76MJ5 whole entry): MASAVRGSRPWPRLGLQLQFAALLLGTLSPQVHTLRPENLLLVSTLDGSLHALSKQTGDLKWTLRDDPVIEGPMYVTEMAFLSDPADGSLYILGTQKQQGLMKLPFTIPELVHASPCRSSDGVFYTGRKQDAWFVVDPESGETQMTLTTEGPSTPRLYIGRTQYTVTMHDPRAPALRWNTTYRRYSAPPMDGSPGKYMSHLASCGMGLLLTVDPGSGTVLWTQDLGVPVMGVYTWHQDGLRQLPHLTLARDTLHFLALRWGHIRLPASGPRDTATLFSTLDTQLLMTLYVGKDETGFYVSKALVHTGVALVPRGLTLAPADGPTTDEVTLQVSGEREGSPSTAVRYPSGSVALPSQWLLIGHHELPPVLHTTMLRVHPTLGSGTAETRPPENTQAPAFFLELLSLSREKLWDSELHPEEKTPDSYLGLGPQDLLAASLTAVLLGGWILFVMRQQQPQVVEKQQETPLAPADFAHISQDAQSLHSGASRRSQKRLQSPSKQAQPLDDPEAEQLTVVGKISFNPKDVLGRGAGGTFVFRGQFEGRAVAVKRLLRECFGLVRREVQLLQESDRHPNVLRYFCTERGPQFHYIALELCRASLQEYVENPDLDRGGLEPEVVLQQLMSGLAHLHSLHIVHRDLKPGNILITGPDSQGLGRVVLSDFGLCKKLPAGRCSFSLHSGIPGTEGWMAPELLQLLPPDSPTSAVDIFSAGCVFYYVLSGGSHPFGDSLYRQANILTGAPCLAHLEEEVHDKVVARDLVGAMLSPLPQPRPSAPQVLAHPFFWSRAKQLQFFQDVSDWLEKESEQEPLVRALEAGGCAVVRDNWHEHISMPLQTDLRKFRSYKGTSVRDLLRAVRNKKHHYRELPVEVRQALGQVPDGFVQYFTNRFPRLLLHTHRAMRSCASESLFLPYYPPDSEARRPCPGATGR
Epidermal growth factor receptor, sequence (P00533 whole entry): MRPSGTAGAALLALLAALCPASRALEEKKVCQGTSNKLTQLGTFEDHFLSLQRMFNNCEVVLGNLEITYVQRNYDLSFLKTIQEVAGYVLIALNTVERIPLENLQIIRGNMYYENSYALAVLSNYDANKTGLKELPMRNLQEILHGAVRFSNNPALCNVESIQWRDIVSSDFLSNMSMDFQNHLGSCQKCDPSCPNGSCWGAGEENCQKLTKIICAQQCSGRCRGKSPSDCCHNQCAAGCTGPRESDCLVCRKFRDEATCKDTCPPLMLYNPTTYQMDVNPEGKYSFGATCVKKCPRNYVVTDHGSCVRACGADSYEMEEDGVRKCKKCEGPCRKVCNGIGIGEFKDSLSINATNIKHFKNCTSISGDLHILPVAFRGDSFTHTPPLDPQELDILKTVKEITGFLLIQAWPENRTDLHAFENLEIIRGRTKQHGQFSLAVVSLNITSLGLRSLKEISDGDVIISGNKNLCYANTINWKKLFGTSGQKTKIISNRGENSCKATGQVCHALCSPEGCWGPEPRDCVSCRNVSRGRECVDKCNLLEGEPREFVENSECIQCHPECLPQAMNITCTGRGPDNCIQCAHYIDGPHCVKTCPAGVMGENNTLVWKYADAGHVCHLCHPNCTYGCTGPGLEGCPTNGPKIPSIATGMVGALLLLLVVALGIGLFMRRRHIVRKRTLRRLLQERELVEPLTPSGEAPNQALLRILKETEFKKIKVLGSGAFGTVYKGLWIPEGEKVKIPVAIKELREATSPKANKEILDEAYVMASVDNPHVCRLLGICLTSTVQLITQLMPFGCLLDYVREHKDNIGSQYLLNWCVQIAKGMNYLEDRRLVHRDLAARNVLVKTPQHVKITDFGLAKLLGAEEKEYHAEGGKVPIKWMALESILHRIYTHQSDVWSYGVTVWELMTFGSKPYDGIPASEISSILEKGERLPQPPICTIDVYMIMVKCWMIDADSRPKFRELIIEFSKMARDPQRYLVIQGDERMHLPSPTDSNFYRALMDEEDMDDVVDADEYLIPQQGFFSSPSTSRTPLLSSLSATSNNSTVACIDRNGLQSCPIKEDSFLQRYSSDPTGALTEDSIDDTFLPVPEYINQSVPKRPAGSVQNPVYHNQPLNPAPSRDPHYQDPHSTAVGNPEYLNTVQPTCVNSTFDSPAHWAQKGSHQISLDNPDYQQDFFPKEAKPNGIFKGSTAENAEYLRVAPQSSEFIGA
Mitogen-activated protein kinase kinase kinase 20, sequence (Q9NYL2 whole entry, canonical isoform): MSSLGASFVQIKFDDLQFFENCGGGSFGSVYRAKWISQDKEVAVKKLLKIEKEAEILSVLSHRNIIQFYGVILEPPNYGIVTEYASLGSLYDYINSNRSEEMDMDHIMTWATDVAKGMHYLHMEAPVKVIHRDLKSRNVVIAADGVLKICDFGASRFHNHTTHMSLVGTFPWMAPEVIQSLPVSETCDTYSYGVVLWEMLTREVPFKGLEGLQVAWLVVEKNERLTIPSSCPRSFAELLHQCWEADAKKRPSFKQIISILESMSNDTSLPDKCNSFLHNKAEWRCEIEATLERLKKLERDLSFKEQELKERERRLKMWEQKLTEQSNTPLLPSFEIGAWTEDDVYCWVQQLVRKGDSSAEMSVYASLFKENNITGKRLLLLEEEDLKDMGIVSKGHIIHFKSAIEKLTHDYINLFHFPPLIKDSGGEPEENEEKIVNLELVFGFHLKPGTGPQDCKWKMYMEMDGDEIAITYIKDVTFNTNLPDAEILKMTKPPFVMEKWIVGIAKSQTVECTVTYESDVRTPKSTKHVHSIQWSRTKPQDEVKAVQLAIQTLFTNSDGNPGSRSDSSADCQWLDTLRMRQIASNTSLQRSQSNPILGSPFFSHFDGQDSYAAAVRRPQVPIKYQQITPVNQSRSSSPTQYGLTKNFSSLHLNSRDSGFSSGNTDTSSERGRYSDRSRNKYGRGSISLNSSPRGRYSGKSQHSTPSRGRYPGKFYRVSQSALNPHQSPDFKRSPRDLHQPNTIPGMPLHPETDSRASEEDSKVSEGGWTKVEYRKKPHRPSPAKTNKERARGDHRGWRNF
Mitogen-activated protein kinase 10, sequence (P53779 whole entry): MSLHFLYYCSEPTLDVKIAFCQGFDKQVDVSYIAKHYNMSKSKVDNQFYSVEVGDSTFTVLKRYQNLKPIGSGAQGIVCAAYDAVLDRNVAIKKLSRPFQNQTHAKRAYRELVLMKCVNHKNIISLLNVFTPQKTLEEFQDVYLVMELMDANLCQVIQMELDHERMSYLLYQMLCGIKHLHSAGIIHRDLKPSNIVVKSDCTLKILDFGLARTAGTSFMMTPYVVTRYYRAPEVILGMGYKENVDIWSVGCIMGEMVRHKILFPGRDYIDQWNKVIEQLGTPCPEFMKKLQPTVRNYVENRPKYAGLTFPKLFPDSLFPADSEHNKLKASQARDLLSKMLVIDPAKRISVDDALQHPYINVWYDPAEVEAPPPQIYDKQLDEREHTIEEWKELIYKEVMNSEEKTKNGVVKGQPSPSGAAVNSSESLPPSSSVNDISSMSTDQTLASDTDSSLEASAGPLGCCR
Ephrin type-A receptor 7, sequence (Q15375 whole entry): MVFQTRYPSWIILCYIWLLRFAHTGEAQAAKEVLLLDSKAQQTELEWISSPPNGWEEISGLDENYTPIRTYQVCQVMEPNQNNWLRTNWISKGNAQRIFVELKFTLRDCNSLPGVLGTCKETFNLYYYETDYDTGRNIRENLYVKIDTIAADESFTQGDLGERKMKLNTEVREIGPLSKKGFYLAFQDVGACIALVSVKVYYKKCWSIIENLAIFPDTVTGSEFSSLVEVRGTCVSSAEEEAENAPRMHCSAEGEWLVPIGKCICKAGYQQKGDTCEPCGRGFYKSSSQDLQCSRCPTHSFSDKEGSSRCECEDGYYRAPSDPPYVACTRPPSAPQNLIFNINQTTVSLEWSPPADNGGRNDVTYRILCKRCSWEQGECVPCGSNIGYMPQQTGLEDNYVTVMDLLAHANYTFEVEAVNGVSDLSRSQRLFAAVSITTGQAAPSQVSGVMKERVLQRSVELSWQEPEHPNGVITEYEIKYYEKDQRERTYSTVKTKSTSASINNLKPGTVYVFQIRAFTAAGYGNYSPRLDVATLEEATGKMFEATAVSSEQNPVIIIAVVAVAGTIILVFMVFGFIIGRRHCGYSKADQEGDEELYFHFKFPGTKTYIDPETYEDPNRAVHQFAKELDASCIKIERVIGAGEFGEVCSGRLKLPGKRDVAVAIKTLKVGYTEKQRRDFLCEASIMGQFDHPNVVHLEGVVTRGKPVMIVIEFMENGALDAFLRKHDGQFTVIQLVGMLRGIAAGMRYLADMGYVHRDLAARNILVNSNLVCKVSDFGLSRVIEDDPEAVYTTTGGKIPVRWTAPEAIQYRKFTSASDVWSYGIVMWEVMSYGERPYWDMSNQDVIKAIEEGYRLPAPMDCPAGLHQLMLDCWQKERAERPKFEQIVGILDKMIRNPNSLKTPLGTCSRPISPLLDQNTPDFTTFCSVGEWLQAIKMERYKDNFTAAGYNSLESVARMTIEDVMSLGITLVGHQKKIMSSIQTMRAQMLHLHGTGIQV

As to `Nc1ncnc2c1c(-c1cccc(OCc3ccccc3)c1)cn2[C@H]1C[C@@H](CN2CCC2)C1` [AEW-541], the Kd in test [1], in test [2], in test [3], in [4], in test [5] and in test [6] was > 30 µM (inactive) throughout. Besides, the Kd in test [7] is > 30 µM (inactive); in test [8], > 30 µM (inactive); in test [9], 0.337 µM (active); in [10], > 30 µM (inactive); in [11], > 30 µM (inactive); in [12] it was > 30 µM (inactive). For the same compound, the Kd in test [13] was > 30 µM (inactive).
Turning to `Cc1nc(NC(=O)N2CCC[C@H]2C(N)=O)sc1-c1ccnc(C(C)(C)C(F)(F)F)c1` [ALPELISIB], the Kd in [1], in test [2], in [3], in [4], in test [5] and in test [6] was > 30 µM (inactive) in each case. Further, the Kd in test [7], in test [8], in test [9], in [10], in test [11] and in [12] was > 30 µM (inactive) throughout. For the same compound, in [13], the Kd is > 30 µM (inactive).
As for `Cc1csc(-c2nnc(Nc3ccc(Oc4ncccc4-c4ccnc(N)n4)cc3)c3ccccc23)c1` [AMG-900], the Kd in test [1], in [2], in [3], in test [4], in [5] and in test [6] was > 30 µM (inactive) each time. Besides, the Kd in test [7], in test [8], in test [9], in test [10], in test [11] and in [12] was > 30 µM (inactive) each time. Further, the Kd in test [13] was > 30 µM (inactive).
`C=CC(=O)Nc1cc2c(Nc3ccc(F)c(Cl)c3)ncnc2cc1C#CC(C)(C)N1CCN(C)CC1` [AV-412 FREE BASE]: the Kd in test [1], in test [2], in test [3], in [4], in test [5] and in test [6] was > 30 µM (inactive) in each case. Also, the Kd in test [7] is 0.01 µM (active); in [8], > 30 µM (inactive); in test [9], 6.27 µM (active); in test [10], > 30 µM (inactive); in [11], > 30 µM (inactive); in [12], > 30 µM (inactive). In [13], the Kd was > 30 µM (inactive).
For `COc1cc([C@@H]2c3cc4c(cc3[C@H](O)[C@H]3COC(=O)[C@@H]23)OCO4)cc(OC)c1OC` [AXL-1717], the Kd in [1], in test [2], in [3], in [4], in test [5] and in [6] was > 30 µM (inactive) each time. The Kd in [7], in test [8], in [9], in test [10], in test [11] and in test [12] was > 30 µM (inactive) each time. In [13], the Kd is > 30 µM (inactive).
As to `Cn1cnc2c(F)c(Nc3ccc(Br)cc3F)c(C(=O)NOCCO)cc21` [BINIMETINIB], the Kd in test [1], in [2], in [3], in test [4], in test [5] and in [6] was > 30 µM (inactive) throughout. Also, the Kd in test [7], in test [8], in test [9], in test [10], in test [11] and in test [12] was > 30 µM (inactive) each time. Besides, in test [13], the Kd is > 30 µM (inactive).
For the compound `CCn1c(C(=O)N(C2CC2)C2CC2)cc2c3c(ncn3C)c(Nc3cc(C)n(C)n3)nc21` [BMS-911543], the Kd in test [1], in test [2], in test [3], in test [4], in test [5] and in [6] was > 30 µM (inactive) in each case. Further, the Kd in [7], in test [8], in [9], in test [10], in test [11] and in test [12] was > 30 µM (inactive) in each case. Further, the Kd in [13] is > 30 µM (inactive).
Regarding `COc1c(OCCCN2CCOCC2)ccc2c1N=C(NC(=O)c1cnc(N)nc1)N1CCN=C21` [COPANLISIB], the Kd in test [1], in test [2], in test [3], in test [4], in test [5] and in test [6] was > 30 µM (inactive) throughout. Moreover, the Kd in [7], in [8], in [9], in [10], in test [11] and in [12] was > 30 µM (inactive) each time. Also, the Kd in test [13] was > 30 µM (inactive).
`O=C(Nc1nc2cccc(-c3ccc(CN4CCS(=O)(=O)CC4)cc3)n2n1)C1CC1` [FILGOTINIB]: the Kd in test [1], in test [2], in test [3], in test [4], in test [5] and in [6] was > 30 µM (inactive) throughout. For the same compound, the Kd in test [7], in test [8], in [9], in [10], in test [11] and in [12] was > 30 µM (inactive) each time. The Kd in test [13] is 2.14 µM (active).
In the case of `Cc1cccc(-c2nn3c(c2-c2ccnc4ccc(C(N)=O)cc24)CCC3)n1` [GALUNISERTIB], the Kd in test [1] was > 30 µM (inactive); in test [2], > 30 µM (inactive); in test [3], > 30 µM (inactive); in test [4], 16.1 µM (active); in [5], > 30 µM (inactive); in test [6], > 30 µM (inactive). Moreover, the Kd in test [7], in test [8], in [9], in test [10], in [11] and in test [12] was > 30 µM (inactive) throughout. Moreover, in [13], the Kd was > 30 µM (inactive).
